Source: patent US6369090B1, “Fungicidal mixture” (BASF Aktiengesellschaft, priority 1997, dated 2002)

What was measured:
Puccinia recondita = assay: Curative action against Puccinia recondita on wheat (brown rust of wheat); format: in vivo; settings: single active ingredient, 7 days
Experimental: The active ingredients, separately or together, were formulated as a 10% emulsion in a mixture of 63% by weight of cyclohexanone and 27% by weight of emulsifier, and diluted with water to the desired concentration.
The expected efficacies of the mixtures of the active ingredients were determined using Colby's formula [R. S. Colby, Weeds 15, 20-22 (1967)] and compared with the observed efficacies.
Colby's formula: E=x+y−x·y/100
E expected efficacy, expressed in % of the untreated control, when using the mixture, disclosed in DE Appl. 19617232.2, of the active ingredients I and II (=active ingredient mixture A) and the active ingredients III at the concentrations a and c […]
x efficacy, expressed in % of the untreated control, when using a mixture, disclosed in DE Appl. 19617232.2, of the active ingredients I and II at a concentration of a y efficacy, expressed in % of the untreated control, when using active ingredient III at a concentration of c Curative action against Puccinia recondita on wheat (brown rust of wheat) Leaves of wheat seedlings cv. “Frühgold” which had been grown in pots were dusted with spores of brown rust (Puccinia recondita). The pots were then kept for 24 hours in a chamber of high atmospheric humidity (90 to 95%) at 20 to 22° C. During this time, the spores germinated and the germinal tubes penetrated into the leaf tissue. The next day, the infected plants were sprayed to runoff point with an aqueous preparation of active ingredient which had been prepared from a stock solution comprising 10% of active ingredient, 63% of cyclohexanone and 27% of emulsifier. After the spray coating had dried on, the test plants were cultivated in a greenhouse at temperatures from 20 to 22° C. and at 65 to 70% relative atmospheric humidity for 7 days. The extent of the rust fungus development on the leaves was then determined.
(§1) The visually determined values for the percentage of infected leaf area were converted into efficacies as percent of the untreated control. Efficacy 0 means the same disease level as in the untreated control, efficacy 100 means 0% disease. The expected efficacies for active ingredient combinations were determined using Colby's formula (Colby, S. R. “Calculating synergistic and antagonistic responses of herbicide combinations”, Weeds, 15, p. 20-22, 1967) and compared with the observed efficacies.

[1] = system: Erysiphe graminis forma specialis tritici; assay: Activity against powdery mildew of wheat (protective, wheat seedlings cv. Frühgold); format: in vivo; settings: single active ingredient, 7 days
From the text: The active ingredients, separately or together, were formulated as a 10% emulsion in a mixture of 63% by weight of cyclohexanone and 27% by weight of emulsifier, and diluted with water to the desired concentration. […]
Activity against powdery mildew of wheat
Leaves of wheat seedlings cv. “Frühgold” which had been grown in pots were sprayed to runoff point with an aqueous preparation of active ingredient which had been prepared from a stock solution comprising 10% of active ingredient, 63% of cyclohexanone and 27% of emulsifier and, 24 hours after the spraycoating had dried on, dusted with spores of powdery mildew of wheat (Erysiphe graminis forma specialis tritici). The test plants were subsequently placed in a greenhouse at from 20 to 24° C. and a relative atmospheric humidity of 60 to 90%. After 7 days, the extent of mildew development was determined visually as percent infection of the total leaf area.
as §1

SMILES	Efficacy in % of the untreated control (Puccinia recondita; 0.31 ppm in the spray liquor) [%]	Efficacy in % of the untreated control ([1]; 0.31 ppm in the spray liquor) [%]	Efficacy in % of the untreated control ([1]; 1.25 ppm in the spray liquor) [%]	Efficacy in % of the untreated control (Puccinia recondita; 1.25 ppm in the spray liquor) [%]
Fc1ccc([C@]2(Cn3cncn3)O[C@@H]2c2ccccc2Cl)cc1 (racemic) [III.8, (2RS, 3RS)-1-[3-(2-chlorophenyl)-2,3-epoxy-2-(4-fluorophenyl)propyl]-1H-1,2,4-triazole]	0	–	–	–
CCCC1COC(Cn2cncn2)(c2ccc(Cl)cc2Cl)O1 (racemic) [III.24, (±)-1-{[2-(2,4-dichlorophenyl)-4-propyl-1,3-dioxolan-2-yl]methyl}-1H-1,2,4-triazole]	0	8	8	0
C[Si](Cn1cncn1)(c1ccc(F)cc1)c1ccc(F)cc1 [III.12, bis-(4-fluorophenyl)(methyl)-(1H-1,2,4-triazol-1-ylmethyl)silane]	0	–	–	0
CCCN(CCOc1c(Cl)cc(Cl)cc1Cl)C(=O)n1ccnc1 [III.23, N-propyl-N-[(2,4,6-trichlorophenoxy)ethyl]imidazole-1-carboxamide]	0	0	0	0
CC(C)(C)C(O)(CCc1ccc(Cl)cc1)n1cncn1 (stereo not drawn) [III.27, 1-(4-chlorophenyl)-4,4-dimethyl-3-(1H-1,2,4-triazol-1yl)pentan-3-ol]	0	8	39	0
